Results on seven molecules are retold here after article PMC7023391, “Comparison of Various Cell Lines and Three-Dimensional Mucociliary Tissue Model Systems to Estimate Drug Permeability Using an In Vitro Transport Study to Predict Nasal Drug Absorption in Rats” (Pharmaceutics, 2020).

Data set [1] can be described thus: In vitro transepithelial transport study across MucilAir tissues. The note with it: human, pH 7.4.
The next data set is described as follows: in vitro. The settings on record: human, Caco-2, pH 7.4. On the procedure: (§1) Cells of the human colon adenocarcinoma cell line, Caco-2, were grown in Dulbecco’s Modified Eagle Medium (DMEM) supplemented with 10% fetal bovine serum (FBS), 1% L-glutamine, 1% non-essential amino acid, and 0.5% antibiotic–antimycotic solution [20]. Caco-2 cells were harvested with trypsin-EDTA and seeded on polycarbonate filters (pore size: 0.3 μm, growth area: 0.9 cm^2, 12 wells/plate, Beckton Dickinson Bioscience, Bedford, MA, USA) at a density of 1.8 × 10^5 cells/well. The culture medium was changed every 2 days. The monolayer was used for in vitro transport studies, 17–20 days after seeding.
(§2) In transport studies using Caco-2, Calu-3, MDCK, and MucilAir, a transport medium (TM; Hank’s balanced salts solution supplemented with 15 mM glucose and 10 mM HEPES good buffer, pH 7.4) was used. […] The permeability of mannitol across MucilAir was cited from the literature.

Data set [2] can be described thus: In vitro transepithelial transport study across MDCK monolayers. The note with it: dog, pH 7.4. On the procedure: (§3) The epithelial Mardi–Darby canine kidney cell line (MDCK) cells were grown in Modified α-Eagle Medium supplemented with 10% FBS and 0.5% antibiotic–antimycotic solution [13]. MDCK cells were harvested with trypsin-EDTA and seeded on polycarbonate filters (pore size: 0.3 μm, growth area: 0.9 cm^2, 12 wells/plate, Beckton Dickinson Bioscience) at a density of 1.8 × 10^5 cells/well. The culture medium was changed every 2 days. The monolayer was used for in vitro transport studies, 6–7 days after seeding.
as §2

For data set [3] the following is noted: nasal application to rats, AUCn/AUCiv; mean ± S.E.; determined in this study by the same method as ref 11.
Description: Under anesthesia by intraperitoneal sodium pentobarbital (50 mg/kg, Nembutal, Abbott Laboratories, Abbott Park, IL, USA), the right femoral artery was cannulated with polyethylene tubing (SP-31, Natsume, Tokyo, Japan) for the collection of blood samples. […] Blood samples were collected from arterial tubing in heparinized tubes at predetermined time intervals for 120 min. The blood was centrifuged to obtain the plasma.
Under light isoflurane anesthesia, the right femoral artery was cannulated with polyethylene tubing. A drug dissolved in 5 µL of phosphate buffer saline (pH 7.4) was instilled at 1 cm depth from the nostril by microsyringe. Thereafter, animals were kept in a cage (KN-326-III, Natsume, Tokyo, Japan) throughout the experiment. It usually took 5 min after drug instillation for the rat to recover from the anesthesia. Blood samples were collected for 360 min after drug administration. During this period, the animal was allowed free access to water.
Fractional nasal absorption (Fn) was calculated as follows:Fn = AUCn/AUCiv(2) where AUCn and AUCiv are the area under the concentration–time profile following the nasal and intravenous administration of the drug. AUC was calculated according to the trapezoidal rule up to the last sampling point and extrapolation after the last sampling point.
Data set [4] deals with MDCK. Also noted: method as in PMID 23200901. The note with it: [14C] D-mannitol; cited from the previous report; cited from earlier work.
In data set [5] the test system is MucilAir. The arrangement: method as in PMID 24216300. The settings on record: [3H] mannitol; cited from the previous report; cited from earlier work.
The conditions of data set [6]: cited from earlier work.
A further data set relates to EpiAirway. Nature of the data set: In vitro transepithelial transport study across EpiAirway tissues. Here is the method:
Upon arrival, the primary human tracheal/bronchial epithelial cell system, EpiAirway, and the primary human bronchial epithelial cell system, MucilAir, were transferred to the well filled with 0.9 mL assay medium for EpiAirway and 0.7 mL MucilAir culture medium, which are serum free and contain growth factors and phenol red and are supplemented by default with antibiotics (penicillin/streptomycin). Both tissues were subsequently placed in an incubator with 5% CO2 at 37 °C. Both tissues were cultured in an air–liquid interface condition. EpiAirway tissues were used for the transport study following the overnight equilibration in assay medium. The mucous surface of MucilAir tissues was washed with 0.2 mL culture medium 2 days before the experiment in order to adjust the mucous level of each well. The permeation experiment using EpiAirway and MucilAir was conducted according to the manufacturer’s instructions.
In the transport study using EpiAirway, all the procedures were based on the Drug Delivery Protocol established by MatTek Corporation (https://www.mattek.com/wp-content/uploads/EpiAirway-Drug-Delivery-Protocol.pdf), and carried out in Absorption Systems LP. Dulbecco’s Phosphate Buffered Saline (DPBS) without Ca^2+ and Mg^2+ (pH 7.4) was used as the assay buffer. […] Radioactivity was 2 µCi/mL for the dosed [^3H] inulin and 0.5 µCi/mL for the dosed [^14C] mannitol. […]

In another data set the test system is Caco-2. Nature of the data set: in vitro. On the procedure: as §1, §2
The test system of data set [7] is MucilAir. The note with it: pH 7.4.
The subject of data set [8] is MDCK. Nature of the data set: in vitro. The settings on record: pH 7.4. On the procedure:
as §3, §2

In the next data set the test system is Calu-3. Put plainly: In vitro transepithelial transport study across Calu-3 monolayers. On the procedure:
Cells of the human bronchial submucosal gland carcinoma cell line, Calu-3, were grown in DMEM nutrient mixture F-12 HAM supplemented with 10% FBS and 0.5% antibiotic–antimycotic solution [21]. Calu-3 cells were harvested with trypsin-EDTA and seeded on polycarbonate filters (pore size: 0.3 μm, growth area: 0.9 cm^2, 12 wells/plate, Beckton Dickinson Bioscience) at a density of 4.5 × 10^5 cells/well. The culture medium was changed every 2 days. The monolayer was used for in vitro transport studies, 9–10 days after seeding.
as §2

The mark [9] stands for this setting: apical to basal, 10 µM, pH 7.4, 37 °C, up to 60 min, mean ± S.E. of 3–4 experiments, inulin as [14C] inulin, mannitol as [14C] D-mannitol.

Where two headings read alike, the source gives them in different places.

Broadly, the Papp is the rate of passage across a membrane or cell layer, normalised by area and donor concentration. A low value points to slow passage. Turning to `Nc1nc2c(ncn2COCCO)c(=O)[nH]1` [Acyclovir, acyclovir], the Papp at 60 min, 10 µM in data set [1] turned out to be 0.48 ± 0.05 ×10⁻⁶ cm/s; in the data set “in vitro”, 1.29 ± 0.28 ×10⁻⁶ cm/s; in data set [2] it was 0.61 ± 0.23 ×10⁻⁶ cm/s.

In the case of `Cc1cc(=O)n(-c2ccccc2)n1C` [Antipyrine, antipyrine], in data set [3], the “Fractional Absorption (Fn)” value is on record as 96.3 ± 4.2%. This molecule yielded a Papp at 60 min, 10 µM in data set [2] (MDCK) of 32.5 ± 3.71 ×10⁻⁶ cm/s.

`OC[C@@H](O)[C@@H](O)[C@H](O)[C@H](O)CO` [Mannitol, mannitol] showed a Papp at 60 min, 10 µM in “in vitro” of 0.92 ± 0.15 ×10⁻⁶ cm/s. Further, the “Permeability (Papp) MDCK” value in the data set on MDCK [4] is 0.18 ± 0.05 *^3,b ×10^−6cm/s. The “Permeability (Papp) MucilAir” value in the data set with MucilAir [5] is 0.2 ± 0.0 *^4,c ×10^−6cm/s. The “Fractional Absorption (Fn)” value in data set [6] (rat, in vivo) is 52.9 ± 3.4 *^3%.

Regarding `CN(Cc1cnc2nc(N)nc(N)c2n1)c1ccc(C(=O)N[C@@H](CCC(=O)O)C(=O)O)cc1` [Methotrexate, methotrexate], the Papp at 60 min, 10 µM in data set [1] amounted to 0.31 ± 0.06 ×10⁻⁶ cm/s; in the data set “in vitro”, 0.29 ± 0.02 ×10⁻⁶ cm/s; in data set [2], 0.09 ± 0.03 ×10⁻⁶ cm/s.

Take `C=C[C@H]1C[N@@]2CC[C@H]1C[C@@H]2[C@@H](O)c1ccnc2ccc(OC)cc12` [Quinidine, quinidine]: the Papp at 60 min, 10 µM in data set [1] was found to be 18.6 ± 1.93 ×10⁻⁶ cm/s; in data set [2], 11.6 ± 1.31 ×10⁻⁶ cm/s.

For the molecule `Nc1ccc(S(=O)(=O)O)cc1` [Sulfanilic acid, sulfanilic acid], the “Permeability (Papp) EpiAirway” value in the data set with EpiAirway (pH 7.4) is 2.78 ± 0.40 ×10^−6cm/s. In addition, the “Permeability (Papp) Caco-2” value in the data set with Caco-2 (Caco-2, pH 7.4) is recorded as 0.58 ± 0.14 ×10^−6cm/s. The “Permeability (Papp) MucilAir” value in the data set on MucilAir [7] is 0.58 ± 0.15 ×10^−6cm/s. The “Fractional Absorption (Fn)” value in [6] (rat, in vivo) is 82.7 ± 9.0%. Besides, the “Permeability (Papp) MDCK” value with MDCK [8] was 0.43 ± 0.04 ×10^−6cm/s. Besides, the “Permeability (Papp) Calu-3” value in the data set with Calu-3 (pH 7.4) is 0.75 ± 0.05 ×10^−6cm/s.

As for inulin, in the data set with EpiAirway (apical to basal, 10 µM, DPBS pH 7.4, 37 °C, up to 60 min, mean ± S.E. of 3–4 experiments, inulin as [3H] inulin, mannitol as [14C] D-mannitol), the “Permeability (Papp) EpiAirway” value was 2.83 ± 0.20 *^2 ×10^−6cm/s. The “Permeability (Papp) Caco-2” value in the data set on Caco-2 (setting [9]) is 0.34 ± 0.20 *^1 ×10^−6cm/s. For the same molecule, in data set [6] (nasal application to rats, AUCn/AUCiv, mean ± S.E., inulin as [14C] inulin, mannitol as [14C] D-mannitol), the “Fractional Absorption (Fn)” value is 12.4 ± 2.0 *^1%. Also, the “Permeability (Papp) Calu-3” value in the data set with Calu-3 (setting [9]) was 0.30 ± 0.09 *^1 ×10^−6cm/s.
